Measured values: patent US11053251B2, “GPR35 modulators” (Prometheus Biosciences, Inc., priority 2019, dated 2021)

Assays:
[1] = molecular target: Human GPR35 (Homo sapiens, UniProt Q9HC97); experiment: Beta-Arrestin Assay (Tango U2OS cells, LiveBLAzer-FRET B/G); type: cell-based; conditions: Human GPR35 expressing Tango U2OS cells, 5 hours treatment
Procedure: Human GPR35 expressing Tango U2OS cells were plated in 384-well format in clear bottom plates at a cell density of 10,000 cells/well and allowed to grow overnight. The next day, cells were treated with serially diluted test compounds for 5 hours. LiveBLAzer-FRET B/G (CCF4-AM) detection reagents were then added and cells were allowed to incubate for 2 hours before reading plates on a BioTek Cytation 5 plate reader. Zaprinast was used as a positive control for dose-response curves. In order to determine EC50 values, data were fit to a four-parameter dose-response curve.

[2] = molecular target: Human GPR35 (Homo sapiens, UniProt Q9HC97, S294R); experiment: Alternative Beta-Arrestin Assay (JumpIn 294R Tango U2OS cells, LiveBLAzer-FRET B/G); type: cell-based; conditions: for EC50: Human GPR35 expressing JumpIn 294R Tango U2OS cells, 5 hours treatment
Method in brief: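 U2OS Tango cells expressing human GPR35 S294R, plated overnight, exposed to serially diluted compounds for 5 hours. β-lactamase reporter read with LiveBLAzer-FRET B/G (CCF4-AM) after 2 h; EC50 from four-parameter fit, zaprinast as positive control.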

Human GPR35 (Homo sapiens, UniProt Q9HC97, S294R), sequence (Q9HC97 whole entry S294R): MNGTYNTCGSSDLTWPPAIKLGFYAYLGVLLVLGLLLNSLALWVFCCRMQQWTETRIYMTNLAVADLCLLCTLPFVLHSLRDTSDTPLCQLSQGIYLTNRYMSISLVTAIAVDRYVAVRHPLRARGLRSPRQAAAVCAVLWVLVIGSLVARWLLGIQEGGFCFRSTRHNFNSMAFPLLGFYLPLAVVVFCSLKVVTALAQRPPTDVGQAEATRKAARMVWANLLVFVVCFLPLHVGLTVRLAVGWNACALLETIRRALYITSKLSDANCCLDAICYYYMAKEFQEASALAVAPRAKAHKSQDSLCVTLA
Human GPR35 (Homo sapiens, UniProt Q9HC97), sequence (Q9HC97 whole entry): as the sequence (Q9HC97 whole entry S294R) above, with R294S counted along it

SMILES	EC50 [1]	EC50 [2]	% inhibition at 50 μM ([2]; at 50 μM, Table 2)
CCOc1cc(-c2cnn(CC(=O)O)c2)ccc1-c1nc2[nH]nnc2c(=O)[nH]1 [Compound 127, 2-(4-(3-Ethoxy-4-(7-oxo-6,7-dihydro-3H-[1,2,3]triazolo[4,5-d]pyrimidin-5-yl)phenyl)-1H-pyrazol-1-yl)acetic acid]	≤ 10 µM	≤ 10 µM	
CCOc1cc(N2CC[C@H](C(=O)O)C2)ccc1-c1nc2[nH]nnc2c(=O)[nH]1 [Compound 166, (S)-1-(3-ethoxy-4-(7-oxo-6,7-dihydro-3H-[1,2,3]triazolo[4,5-d]pyrimidin-5-yl)phenyl)pyrrolidine-3-carboxylic acid]	≤ 10 µM	≤ 10 µM	
CCOc1cc(C(=O)N[C@H](CCC(=O)O)C(=O)O)ccc1-c1nc2[nH]nnc2c(=O)[nH]1 [Compound 169, (3-ethoxy-4-(7-oxo-6,7-dihydro-3H-[1,2,3]triazolo[4,5-d]pyrimidin-5-yl)benzoyl)-D-glutamic acid]	≤ 10 µM	≤ 10 µM	
CCOc1cc(-c2c[nH]c(C(=O)O)c2)ccc1-c1nc2[nH]nnc2c(=O)[nH]1 [Compound 178, 4-(3-ethoxy-4-(7-oxo-6,7-dihydro-3H-[1,2,3]triazolo[4,5-d]pyrimidin-5-yl)phenyl)-1H-pyrrole-2-carboxylic acid]	≤ 10 µM	≤ 10 µM	
CCOc1cc(Cc2ccccc2)ccc1-c1nc2[nH]nnc2c(=O)[nH]1 [Compound 174, 5-(4-benzyl-2-ethoxyphenyl)-3,6-dihydro-7H-[1,2,3]triazolo[4,5-d]pyrimidin-7-one]	≤ 10 µM	≤ 10 µM	
CCOc1cc(-c2ccc(C(=O)OC)nc2)ccc1-c1nc2[nH]nnc2c(=O)[nH]1 [Compound 124, Methyl 5-(3-ethoxy-4-(7-oxo-6,7-dihydro-3H-[1,2,3]triazolo[4,5-d]pyrimidin-5-yl)phenyl)picolinate]	≤ 10 µM	≤ 10 µM	
CCOc1cc(C(=O)NC2CCCC2)ccc1-c1nc2nn[nH]c2c(=O)[nH]1 [Compound 136, N-Cyclopentyl-3-ethoxy-4-(7-oxo-6,7-dihydro-3H-[1,2,3]triazolo[4,5-d]pyrimidin-5-yl)benzamide]	≤ 10 µM	10 to 50 µM	
CCOc1cc(-c2nnn[nH]2)ccc1-c1nc2[nH]nnc2c(=O)[nH]1 [Compound 143, 5-(2-ethoxy-4-(1H-tetrazol-5-yl)phenyl)-3,6-dihydro-7H-[1,2,3]triazolo[4,5-d]pyrimidin-7-one]	≤ 10 µM	≤ 10 µM	
CCOc1cc(-c2cccc(-c3nnn[nH]3)c2)ccc1-c1nc2[nH]nnc2c(=O)[nH]1 [Compound 153, 5-(3-ethoxy-3′-(1H-tetrazol-5-yl)-[1,1′-biphenyl]-4-yl)-3,6-dihydro-7H-[1,2,3]triazolo[4,5-d]pyrimidin-7-one]	≤ 10 µM	≤ 10 µM	
CCOc1cc(-c2ccc(C(=O)O)s2)ccc1-c1nc2[nH]nnc2c(=O)[nH]1 [Compound 117, 5-(3-Ethoxy-4-(7-oxo-6,7-dihydro-3H-[1,2,3]triazolo[4,5-d]pyrimidin-5-yl)phenyl)thiophene-2-carboxylic acid]	≤ 10 µM	≤ 10 µM	
CCOc1cc(-c2ccc(C(=O)O)nc2)ccc1-c1nc2[nH]nnc2c(=O)[nH]1 [Compound 125, 5-(3-Ethoxy-4-(7-oxo-6,7-dihydro-3H-[1,2,3]triazolo[4,5-d]pyrimidin-5-yl)phenyl)picolinic acid]	≤ 10 µM	≤ 10 µM	
CCOc1cc(CC(=O)O)ccc1-c1nc2[nH]nnc2c(=O)[nH]1 [Compound 146, 2-(3-ethoxy-4-(7-oxo-6,7-dihydro-3H-[1,2,3]triazolo[4,5-d]pyrimidin-5-yl)phenyl)acetic acid]	≤ 10 µM	≤ 10 µM	
CCOc1cc(-c2ccc(C)c(C(=O)O)c2)ccc1-c1nc2[nH]nnc2c(=O)[nH]1 [Compound 155, 3′-ethoxy-4-methyl-4′-(7-oxo-6,7-dihydro-3H-[1,2,3]triazolo[4,5-d]pyrimidin-5-yl)-[1,1′-biphenyl]-3-carboxylic acid]	≤ 10 µM	≤ 10 µM	
CCOc1cc(-c2ccccc2C(=O)OC)ccc1-c1nc2[nH]nnc2c(=O)[nH]1 [Compound 106, Methyl 3′-ethoxy-4′-(7-oxo-6,7-dihydro-3H-[1,2,3]triazolo[4,5-d]pyrimidin-5-yl)-[1,1′-biphenyl]-2-carboxylate]	≤ 10 µM	≤ 10 µM	
CCOc1cc(-c2ccccc2CC(=O)OC)ccc1-c1nc2[nH]nnc2c(=O)[nH]1 [Compound 118, Methyl 2-(3′-ethoxy-4′-(7-oxo-6,7-dihydro-3H-[1,2,3]triazolo[4,5-d]pyrimidin-5-yl)-[1,1′-biphenyl]-2-yl)acetate]	≤ 10 µM	≤ 10 µM	
CCOc1cc(NC(C)=O)ccc1-c1nc2[nH]nnc2c(=O)[nH]1 [Compound 138, N-(3-ethoxy-4-(7-oxo-6,7-dihydro-3H-[1,2,3]triazolo[4,5-d]pyrimidin-5-yl)phenyl)acetamide]	≤ 10 µM	10 to 50 µM	

SMILES	EC50 [1]	EC50 [2]	% inhibition at 50 μM ([2]; at 50 μM, Table 2)
CCOc1cc(-c2ccc(N)c(C(=O)O)c2)ccc1-c1nc2[nH]nnc2c(=O)[nH]1 [Compound 181, 4-amino-3′-ethoxy-4′-(7-oxo-6,7-dihydro-3H-[1,2,3]triazolo[4,5-d]pyrimidin-5-yl)-[1,1′-biphenyl]-3-carboxylic acid]	≤ 10 µM	≤ 10 µM	
CCOc1cc(-c2ccncc2)ccc1-c1nc2[nH]nnc2c(=O)[nH]1 [Compound 104, 5-(2-Ethoxy-4-(pyridin-4-yl)phenyl)-3,6-dihydro-7H-[1,2,3]triazolo[4,5-d]pyrimidin-7-one]	≤ 10 µM	≤ 10 µM	
CCOc1cc(-c2ccc(CC(=O)O)cc2)ccc1-c1nc2[nH]nnc2c(=O)[nH]1 [Compound 115, 2-(3′-Ethoxy-4′-(7-oxo-6,7-dihydro-3H-[1,2,3]triazolo[4,5-d]pyrimidin-5-yl)-[1,1′-biphenyl]-4-yl)acetic acid]	≤ 10 µM	≤ 10 µM	
CCOc1cc(C(=O)N2CCC[C@@H]2C(=O)O)ccc1-c1nc2[nH]nnc2c(=O)[nH]1 [Compound 159, (3-ethoxy-4-(7-oxo-6,7-dihydro-3H-[1,2,3]triazolo[4,5-d]pyrimidin-5-yl)benzoyl)-D-proline]	> 10 µM	10 to 50 µM	
CCOc1cc(C(=O)N2CC[C@@H](C(=O)O)C2)ccc1-c1nc2[nH]nnc2c(=O)[nH]1 [Compound 161, (R)-1-(3-ethoxy-4-(7-oxo-6,7-dihydro-3H-[1,2,3]triazolo[4,5-d]pyrimidin-5-yl)benzoyl)pyrrolidine-3-carboxylic acid]	≤ 10 µM	≤ 10 µM	
CCOc1cc(N2CCCC(C(=O)O)C2)ccc1-c1nc2[nH]nnc2c(=O)[nH]1 (centres unmarked) [Compound 173, 1-(3-ethoxy-4-(7-oxo-6,7-dihydro-3H-[1,2,3]triazolo[4,5-d]pyrimidin-5-yl)phenyl)piperidine-3-carboxylic acid]	≤ 10 µM	≤ 10 µM	
CCOc1cc(-c2cncc(C(=O)O)c2)ccc1-c1nc2[nH]nnc2c(=O)[nH]1 [Compound 113, 5-(3-Ethoxy-4-(7-oxo-6,7-dihydro-3H-[1,2,3]triazolo[4,5-d]pyrimidin-5-yl)phenyl)nicotinic acid]	≤ 10 µM	≤ 10 µM	
CCOc1cc(-c2ccccn2)ccc1-c1nc2[nH]nnc2c(=O)[nH]1 [Compound 105, 5-(2-Ethoxy-4-(pyridin-2-yl)phenyl)-3,6-dihydro-7H-[1,2,3]triazolo[4,5-d]pyrimidin-7-one]	≤ 10 µM	≤ 10 µM	
CCOc1cc(-c2cccc(OCC(=O)O)c2)ccc1-c1nc2[nH]nnc2c(=O)[nH]1 [Compound 121, 2-((3′-Ethoxy-4′-(7-oxo-6,7-dihydro-3H-[1,2,3]triazolo[4,5-d]pyrimidin-5-yl)-[1,1′-biphenyl]-3-yl)oxy)acetic acid]	≤ 10 µM	≤ 10 µM	
CCOc1cc(C(=O)Nc2ccccn2)ccc1-c1nc2[nH]nnc2c(=O)[nH]1 [Compound 140, 3-ethoxy-4-(7-oxo-6,7-dihydro-3H-[1,2,3]triazolo[4,5-d]pyrimidin-5-yl)-N-(pyridin-2-yl)benzamide]	≤ 10 µM	≤ 10 µM	
CCOc1cc(N)ccc1-c1nc2[nH]nnc2c(=O)[nH]1 [Compound 137, 5-(4-amino-2-ethoxyphenyl)-3,6-dihydro-7H-[1,2,3]triazolo[4,5-d]pyrimidin-7-one]	≤ 10 µM	≤ 10 µM	
CCOc1cc(-c2ccc(OC)c(C(=O)O)c2)ccc1-c1nc2[nH]nnc2c(=O)[nH]1 [Compound 182, 3′-ethoxy-4-methoxy-4′-(7-oxo-6,7-dihydro-3H-[1,2,3]triazolo[4,5-d]pyrimidin-5-yl)-[1,1′-biphenyl]-3-carboxylic acid]	≤ 10 µM	≤ 10 µM	
CCOc1cc(B(O)O)ccc1-c1nc2[nH]nnc2c(=O)[nH]1 [Compound 151, (3-ethoxy-4-(7-oxo-6,7-dihydro-3H-[1,2,3]triazolo[4,5-d]pyrimidin-5-yl)phenyl)boronic acid]	≤ 10 µM	≤ 10 µM	
CCOc1cc(N2CCCC2=O)ccc1-c1nc2[nH]nnc2c(=O)[nH]1 [Compound 165, 5-(2-ethoxy-4-(2-oxopyrrolidin-1-yl)phenyl)-3,6-dihydro-7H-[1,2,3]triazolo[4,5-d]pyrimidin-7-one]	≤ 10 µM		66% inhibition at
CCOc1cc(-c2ncccn2)ccc1-c1nc2[nH]nnc2c(=O)[nH]1 [Compound 103, 5-(2-Ethoxy-4-(pyrimidin-2-yl)phenyl)-3,6-dihydro-7H-[1,2,3]triazolo[4,5-d]pyrimidin-7-one]	≤ 10 µM	≤ 10 µM	
